Assay results reported in patent US20250066319A1, “NOVEL ACID ADDITION SALT AND CRYSTALLINE FORM OF (2R, 3S)-2-(3-(4,5-DICHLORO-1H-BENZO[d]IMIDAZOL-1-YL)PROPYL)PIPERIDIN-3-OL” (Daewoong Pharmaceutical Co., Ltd., priority 2021, published 2025).
Structures can show the parent of a compound that is named as a salt.

Experiments:
Type in all cases: physicochemical
[1] = Hygroscopicity test (weight change in desiccators of constant relative humidity); set-up: scale not given here; conditions: room temperature, one day
Method: The hygroscopicity tests of the acid addition salts prepared in Examples 1-1 to 1-6 and Comparative Example 1 were performed.
After one day, the change in weight was measured, then transferred to another desiccator and the previous experiment was repeated. At this time, for sorption analysis, the weight change was measured by moving the sample from a low-humidity desiccator to a high-humidity desiccator, and for desorption analysis, the weight change was measured by transferring the sample from a high-humidity desiccator with high humidity to a low-humidity desiccator.

[2] = Stability confirmation: severe test with respect to temperature, HPLC peak area of main component; conditions: 60° C., relative humidity less than 10%
Method: (§1) The acid addition salts prepared in some Examples and Comparative Examples were subjected to stability tests against high temperature and high humidity.
Specifically, the severe tests with respect to temperature were performed by placing 50 mg of a sample in a vial, closing the lid, and then measuring the content of impurities using HPLC (Azura, KNAUER, P6.1 1 L, DAD 6.1 L) after 1 week, 2 weeks, 4 weeks, and 8 weeks while storing in a chamber at 60° C. and a relative humidity of less than 10%.
(§2) At a fixed time after the start of the test, one vial or beaker was taken out from each time point (the number of samples per test: n=1), and impurities were analyzed using HPLC under the conditions shown in Table 3 below. Then, the peak area was determined through integration for all the detected peaks, and then the relative peak area (%) for the main component was calculated and expressed as an average value.

[3] = Stability confirmation: severe test with respect to moisture, HPLC peak area of main component; conditions: 93% RH, open beaker
Method: as §1
And, the severe tests with respect to moisture were performed by placing 50 mg of a sample in a 10 ml beaker, and measuring the content of impurities using HPLC (Azura, KNAUER, P6.1 1 L, DAD 6.1 L) after 1 week, 2 weeks, 4 weeks, and 8 weeks while storing the sample in a 93% RH desiccator in a state that the lid was not closed so that the sample has sufficient contact with the moisture in the air.
as §2

[4] = Differential scanning calorimetry analysis after severe test with respect to temperature; conditions: high temperature condition (60° C.), 1 week and 8 weeks; Dihydrochloride
Method: For (2R,3S)-2-(3-(4,5-dichloro-1H-benzo[d]imidazol-1-yl)propyl)piperidin-3-ol monohydrochloride prepared in Example 1-1 and (2R,3S)-2-(3-(4,5-dichloro-1H-benzo[d]imidazol-1-yl)propyl)piperidin-3-ol dihydrochloride prepared in Comparative Example 1, each beaker was taken out 1 week and 8 weeks after the start of the test from the desiccator where the severe tests with respect to temperature were in progress, and the differential scanning calorimetry analysis was performed. At this time, the differential scanning calorimetry analysis was performed using a differential scanning calorimeter (DSC Q20, manufactured by TA Instruments) in a tightly closed pan under nitrogen purge at a scan rate of 10° C./min while raising the temperature from 20° C. to 300° C.

In the case of `O[C@H]1CCCN[C@@H]1CCCn1cnc2c(Cl)c(Cl)ccc21` [Comparative Example 1, (2R,3S)-2-(3-(4,5-dichloro-1H-benzo[d]imidazol-1-yl)propyl)piperidin-3-ol Dihydrochloride, reference compound], the “weight change, desorption” value ([1]; 11% RH, Dihydrochloride) is reported as 102.9, the “weight change, desorption” value ([1]; 33% RH, Dihydrochloride) is reported as 103.9 and the “weight change, desorption” value ([1]; 54% RH, Dihydrochloride) is reported as 104.7. For the same compound, the “weight change, desorption” value ([1]; 75% RH, Dihydrochloride) was 105.4, the “weight change, sorption” value ([1]; 33% RH, Dihydrochloride) was 100.9 and the “weight change, sorption” value ([1]; 54% RH, Dihydrochloride) was 108. For the same compound, the “weight change, sorption” value ([1]; 75% RH, Dihydrochloride) was 105.4, the “weight change, sorption” value ([1]; 93% RH, Dihydrochloride) was 128 and the “relative peak area for the main component (HPLC)” value (shortened to “relative peak area”) ([2]; after 1 week, Dihydrochloride) was 99.7%. For the same compound, the “relative peak area” value ([2]; after 2 weeks, Dihydrochloride) was 99.7%, the “relative peak area” value ([2]; after 4 weeks, Dihydrochloride) was 99.8% and the “relative peak area” value ([2]; after 8 weeks, Dihydrochloride) was 99.7%. For the same compound, the “relative peak area” value ([2]; initial, Dihydrochloride) was 99.6%, the “relative peak area” value ([3]; after 1 week, Dihydrochloride) was 99.7% and the “relative peak area” value ([3]; after 2 weeks, Dihydrochloride) was 99.7%. The “relative peak area” value ([3]; after 4 weeks, Dihydrochloride) was 99.7%, the “relative peak area” value ([3]; after 8 weeks, Dihydrochloride) was 99.7% and the “relative peak area” value ([3]; initial, Dihydrochloride) was 99.6%. For the same compound, the “change in differential scanning calorimetry analysis pattern” value [4] was “shows a change in the differential scanning calorimetry analysis pattern”.
With `O[C@H]1CCCN[C@@H]1CCCn1cnc2c(Cl)c(Cl)ccc21` [Example 1-2, (2R,3S)-2-(3-(4,5-dichloro-1H-benzo[d]imidazol-1-yl)propyl)piperidin-3-ol Dioxalate I] the “weight change, desorption” value ([1]; 11% RH) was 100, the “weight change, desorption” value ([1]; 33% RH) was 101.6 and the “weight change, desorption” value ([1]; 54% RH) was 102. For the same compound, the “weight change, desorption” value ([1]; 75% RH) was 102.9, the “weight change, sorption” value ([1]; 11% RH) was 100 and the “weight change, sorption” value ([1]; 33% RH) was 101.1. For the same compound, the “weight change, sorption” value ([1]; 54% RH) was 101.8, the “weight change, sorption” value ([1]; 75% RH) was 102.9 and the “weight change, sorption” value ([1]; 93% RH) was 105.6. For the same compound, the “relative peak area” value ([2]; after 1 week) was 99.9%, the “relative peak area” value ([2]; after 2 weeks) was 99.8% and the “relative peak area” value ([2]; after 4 weeks) was 99.7%. For the same compound, the “relative peak area” value ([2]; after 8 weeks) was 99.8%, the “relative peak area” value ([2]; initial) was 99.8% and the “relative peak area” value ([3]; after 1 week) was 99.3%. For the same compound, the “relative peak area” value ([3]; after 2 weeks) was 99.7%, the “relative peak area” value ([3]; after 4 weeks) was 99.8% and the “relative peak area” value ([3]; after 8 weeks) was 99.8%. The “relative peak area” value ([3]; initial) was 99.8%.
With `O[C@H]1CCCN[C@@H]1CCCn1cnc2c(Cl)c(Cl)ccc21` [Example 1-4, (2R,3S)-2-(3-(4,5-dichloro-1H-benzo[d]imidazol-1-yl)propyl)piperidin-3-ol Hemi-Oxalate] the “weight change, desorption” value ([1]; 11% RH) was 101.0, the “weight change, desorption” value ([1]; 33% RH) was 101.0 and the “weight change, desorption” value ([1]; 54% RH) was 101.9. For the same compound, the “weight change, desorption” value ([1]; 75% RH) was 103.2, the “weight change, sorption” value ([1]; 11% RH) was 100 and the “weight change, sorption” value ([1]; 33% RH) was 101.0. For the same compound, the “weight change, sorption” value ([1]; 54% RH) was 101.6, the “weight change, sorption” value ([1]; 75% RH) was 101.9 and the “weight change, sorption” value ([1]; 93% RH) was 105.4.
For `O[C@H]1CCCN[C@@H]1CCCn1cnc2c(Cl)c(Cl)ccc21` [Example 1-5, (2R,3S)-2-(3-(4,5-dichloro-1H-benzo[d]imidazol-1-yl)propyl)piperidin-3-ol Hemi-Maleate], the “weight change, desorption” value ([1]; 11% RH) was 99.5, the “weight change, desorption” value ([1]; 33% RH) was 99.8 and the “weight change, desorption” value ([1]; 54% RH) was 99.8. For the same compound, the “weight change, desorption” value ([1]; 75% RH) was 100.5, the “weight change, sorption” value ([1]; 11% RH) was 100 and the “weight change, sorption” value ([1]; 33% RH) was 100. The “weight change, sorption” value ([1]; 54% RH) was 100.7, the “weight change, sorption” value ([1]; 75% RH) was 100.9 and the “weight change, sorption” value ([1]; 93% RH) was 101.6. For the same compound, the “relative peak area” value ([2]; after 2 weeks) was 99.8%, the “relative peak area” value ([2]; after 4 weeks) was 99.7% and the “relative peak area” value ([2]; after 8 weeks) was 99.9%. The “relative peak area” value ([2]; initial) was 99.8%, the “relative peak area” value ([3]; after 2 weeks) was 99.8% and the “relative peak area” value ([3]; after 4 weeks) was 99.8%. The “relative peak area” value ([3]; after 8 weeks) was 99.9% and the “relative peak area” value ([3]; initial) was 99.8%.
With “(2R,3S)-2-(3-(4,5-dichloro-1H-benzo[d]imidazol-1-yl)propyl)piperidin-3-ol Dioxalate II [Example 1-3]” the “weight change, desorption” value ([1]; 11% RH) was 100, the “weight change, desorption” value ([1]; 33% RH) was 100 and the “weight change, desorption” value ([1]; 54% RH) was 100.2. For the same compound, the “weight change, desorption” value ([1]; 75% RH) was 100.8, the “weight change, sorption” value ([1]; 11% RH) was 100 and the “weight change, sorption” value ([1]; 33% RH) was 100. The “weight change, sorption” value ([1]; 54% RH) was 100, the “weight change, sorption” value ([1]; 75% RH) was 101.3 and the “weight change, sorption” value ([1]; 93% RH) was 101.3. The “relative peak area” value ([2]; after 1 week) was 99.9%, the “relative peak area” value ([2]; after 2 weeks) was 99.8% and the “relative peak area” value ([2]; after 4 weeks) was 99.8%. The “relative peak area” value ([2]; after 8 weeks) was 99.9%, the “relative peak area” value ([2]; initial) was 99.8% and the “relative peak area” value ([3]; after 1 week) was 99.7%. For the same compound, the “relative peak area” value ([3]; after 2 weeks) was 99.8%, the “relative peak area” value ([3]; after 4 weeks) was 99.9% and the “relative peak area” value ([3]; after 8 weeks) was 99.9%. The “relative peak area” value ([3]; initial) was 99.8%.
